Measurements from patent publication US20020076736A1, “Methods of affecting laminin 5 processing” (priority 2000, published 2002).
Entries after “also recorded” stand apart in the source; their conditions may differ.

Key:
[1] = tested on: normal immortalized keratinocytes (NIK); experiment: Scratch assay, normal immortalized keratinocytes; format: cell-based
Experimental: (§1) A dose-dependent study of Compound 2 was performed on keratinocyte cultures. In these assays, a scratch was placed in a confluent layer of cells, and the migration of the cells into the scratched area was assessed after 48 hours. In the absence of inhibitor, normal immortalized keratinocytes (NIK) migrated into the scratch area.

SCC-15 cells = experiment: Matrigel invasion chamber, SCC-15; format: cell-based; details: 5 μM; 24 hours
Experimental: (§2) The assay is a standard in vitro measure of tumor cell invasion. Tumor cells are plated atop a layer of fabricated basement membrane and allowed to migrate over the course of 24 hours towards conditioned 3T3 medium, which contains a chemo-attractant, located in a lower chamber. […] (FIG. 25.)

SCC-25 cells = experiment: Matrigel invasion chamber, SCC-25; format: cell-based, human; details: 5 μM; 24 hours
Experimental: as §2

[2] = tested on: squamous carcinoma cell line SCC-25; experiment: Scratch assay, SCC-25; format: cell-based, human
Experimental: (§3) To approximate in vivo epidermal cell migration, during which epidermal cells move as sheets, scratch assays were utilized. Normal human keratinocytes were plated to confluence in the presence of either of the inhibitors (10 μM) or DMSO, and the cells allowed to attach for 6 hours. A 2 mm scratch was produced in the culture, marked, and the migration of the cells studied for the following 24 to 48 hours. […] (FIG. 7B.) When scratched plates were subsequently washed after 24 hours of incubation with the inhibitors, and incubated for an additional 24 hours in the absence of inhibitors, normal migration equivalent to that of the control conditions was noted.
In addition, squamous carcinoma cell line SCC-25 (ATCC Number CRL-1628) was examined by the described scratch assay using the inhibitors. […] Washing out of the inhibitors for an additional 48 hour time period restored normal SCC migration.
as §1

keratinocytes = experiment: Keratinocyte migration, Boyden chambers; format: cell-based
Experimental: Compounds 1 and 2 were used to examine the functional effects of processing by BMP-1 related proteins on keratinocyte migration. […] Keratinocytes were analyzed for migration in Boyden chambers in the presence of increasing amounts of the inhibitors. […] (Koivunen et al. (1999) Nature Biotechnology 17:768-774.)

SCC-25 = experiment: MTT toxicity assay, SCC-25; format: cell-based, human; details: 24 hour
MMP-1 = target: T1, MMP-1 (Homo sapiens, UniProt P03956); experiment: Inhibition of MMP-1 activity; format: biochemical
T1 sequence (P03956 100-469): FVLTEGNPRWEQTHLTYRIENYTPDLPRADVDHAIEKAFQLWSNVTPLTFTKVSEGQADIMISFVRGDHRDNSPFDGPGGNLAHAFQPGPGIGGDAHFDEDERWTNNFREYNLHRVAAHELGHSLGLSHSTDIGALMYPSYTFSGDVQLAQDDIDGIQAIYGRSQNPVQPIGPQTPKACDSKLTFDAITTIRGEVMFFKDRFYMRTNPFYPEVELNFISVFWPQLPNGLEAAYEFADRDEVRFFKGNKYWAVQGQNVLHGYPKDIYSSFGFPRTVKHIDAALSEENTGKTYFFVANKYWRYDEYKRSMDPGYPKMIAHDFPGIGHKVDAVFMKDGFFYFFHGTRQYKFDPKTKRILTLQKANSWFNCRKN

mTll-1 = mTll-1 (Homo sapiens, UniProt O43897); experiment: Cleavage of unprocessed laminin 5 matrix by mTll-1, western blot; format: biochemical; details: 10 μM
Experimental: (§4) The processing of laminin 5 by various BMP-1 related proteins was examined. […] The cells were then removed from the culture dish by 20 mM ammonium sulfate, the dish was washed, and the matrix was incubated in increasing amounts of each BMP-1 related protein. After proteolytic digestion, the matrix was extracted and examined by western blot analysis. […] BMP-1 and mTLL-2 cleaved the γ2 chain of laminin 5.

[3] = tested on: squamous cell carcinoma cell line SCC-15; experiment: Scratch assay, SCC-15; format: cell-based; details: 1, 5, 10 μM; 48 hours
MMP-9 = MMP-9 (Homo sapiens, UniProt P14780); experiment: Inhibition of MMP-9 activity; format: biochemical
SCC-15 = experiment: MTT toxicity assay, SCC-15; format: cell-based; details: 24 hour
mTll-2 = mTll-2 (Homo sapiens, UniProt Q9Y6L7); experiment: Cleavage of unprocessed laminin 5 matrix by mTll-2, western blot; format: biochemical; details: 10 μM
Experimental: as §4

[4] = tested on: laminin 5 processing in squamous cell carcinoma cell line SCC-25; experiment: Laminin 5 processing in SCC-25 cells, western blot; format: cell-based, human; details: 1, 5, 10 μM; 48 hours
Experimental: (§5) This is shown by western blot analysis. […] (FIG. 13: lane 1, control; lane 2, 1 μM; lane 3, 5 μM; lane 4, 10 μM.)

MT1-MMP = MT1-MMP (Homo sapiens, UniProt P50281); experiment: Inhibition of MT1-MMP activity; format: biochemical
[5] = tested on: normal human keratinocytes; experiment: Scratch assay, normal human keratinocytes; format: cell-based; details: 10 μM; 24 hours
Experimental: as §3

cultured cells = experiment: Toxicity to cultured cells; format: cell-based
[6] = tested on: laminin 5 processing in normal immortalized keratinocytes (NIK); experiment: Laminin 5 processing in normal immortalized keratinocytes, western blot; format: cell-based; details: 1, 5, 8 μM; 48 hours
[7] = tested on: laminin 5 processing in squamous cell carcinoma cell line SCC-15; experiment: Laminin 5 processing in SCC-15 cells, western blot; format: cell-based; details: 1, 5, 10 μM; 48 hours
Experimental: as §5

MMP-2 = target: T2, MMP-2 (Homo sapiens, UniProt P08253); experiment: Inhibition of MMP-2 activity; format: biochemical
T2 sequence (P08253 110-660): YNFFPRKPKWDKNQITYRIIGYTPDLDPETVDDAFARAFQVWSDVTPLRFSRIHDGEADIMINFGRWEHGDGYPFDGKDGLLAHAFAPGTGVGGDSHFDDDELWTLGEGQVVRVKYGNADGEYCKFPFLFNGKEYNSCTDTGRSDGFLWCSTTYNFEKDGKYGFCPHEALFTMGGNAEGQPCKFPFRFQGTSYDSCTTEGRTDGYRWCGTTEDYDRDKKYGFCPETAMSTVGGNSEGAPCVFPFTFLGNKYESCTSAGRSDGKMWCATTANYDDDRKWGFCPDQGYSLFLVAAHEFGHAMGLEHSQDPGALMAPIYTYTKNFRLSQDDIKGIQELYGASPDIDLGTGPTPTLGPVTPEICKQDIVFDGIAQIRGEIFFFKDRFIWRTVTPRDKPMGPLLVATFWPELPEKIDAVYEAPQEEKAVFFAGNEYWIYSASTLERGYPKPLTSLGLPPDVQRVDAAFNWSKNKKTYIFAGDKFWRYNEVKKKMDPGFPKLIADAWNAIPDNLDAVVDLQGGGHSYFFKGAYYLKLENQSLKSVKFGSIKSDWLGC

SiHa cells = experiment: Matrigel invasion chamber, SiHa; format: cell-based; details: 24 hours; cell line unable to produce laminin 5
Experimental: as §2

squamous carcinoma cells = experiment: Migration of squamous carcinoma cells (general statement); format: cell-based
[8] = tested on: laminin 5 processing in normal human keratinocytes; experiment: Laminin 5 processing in keratinocyte cultures, western blot; format: cell-based
Experimental: Each of the inhibitors was added to freshly plated cultures of normal human keratinocytes. After 16 hours, laminin 5 was extracted from cultures and analyzed by western blot using a polyclonal antibody to laminin 5.

normal keratinocytes = experiment: Keratinocyte detachment by trypsin; format: cell-based; details: cultured 24 hours with compound; 0.05% trypsin
Excerpt: The mode of attachment of keratinocytes to processed and unprocessed laminin 5 was examined by two methods. […] (FIG. 20.)

SiHa = experiment: MTT toxicity assay, SiHa; format: cell-based; details: 24 hour

Sequence of mTll-2 (Q9Y6L7 150-1015): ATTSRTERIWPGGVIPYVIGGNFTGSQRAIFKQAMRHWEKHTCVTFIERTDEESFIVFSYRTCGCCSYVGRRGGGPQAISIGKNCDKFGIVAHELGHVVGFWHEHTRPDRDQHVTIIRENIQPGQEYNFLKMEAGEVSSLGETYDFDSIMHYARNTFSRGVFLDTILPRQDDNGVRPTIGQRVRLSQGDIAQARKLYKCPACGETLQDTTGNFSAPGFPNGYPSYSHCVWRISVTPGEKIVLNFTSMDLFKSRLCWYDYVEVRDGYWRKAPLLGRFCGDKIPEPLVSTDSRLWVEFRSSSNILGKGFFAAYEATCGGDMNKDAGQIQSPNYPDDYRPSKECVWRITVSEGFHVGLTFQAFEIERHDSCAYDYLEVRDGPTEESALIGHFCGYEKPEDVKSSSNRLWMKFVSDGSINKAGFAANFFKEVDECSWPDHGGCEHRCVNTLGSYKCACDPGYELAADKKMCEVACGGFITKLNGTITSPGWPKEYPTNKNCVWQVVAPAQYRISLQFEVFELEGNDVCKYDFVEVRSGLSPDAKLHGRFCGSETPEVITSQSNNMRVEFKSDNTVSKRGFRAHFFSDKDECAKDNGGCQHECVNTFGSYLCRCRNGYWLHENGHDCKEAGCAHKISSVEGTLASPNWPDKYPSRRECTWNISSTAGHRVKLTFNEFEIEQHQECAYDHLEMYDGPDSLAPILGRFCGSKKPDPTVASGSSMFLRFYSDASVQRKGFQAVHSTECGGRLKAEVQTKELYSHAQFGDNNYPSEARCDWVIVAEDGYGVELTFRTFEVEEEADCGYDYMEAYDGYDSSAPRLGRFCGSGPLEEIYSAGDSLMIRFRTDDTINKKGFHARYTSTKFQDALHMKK
Sequence of MMP-9 (P14780 94-707, species assumed): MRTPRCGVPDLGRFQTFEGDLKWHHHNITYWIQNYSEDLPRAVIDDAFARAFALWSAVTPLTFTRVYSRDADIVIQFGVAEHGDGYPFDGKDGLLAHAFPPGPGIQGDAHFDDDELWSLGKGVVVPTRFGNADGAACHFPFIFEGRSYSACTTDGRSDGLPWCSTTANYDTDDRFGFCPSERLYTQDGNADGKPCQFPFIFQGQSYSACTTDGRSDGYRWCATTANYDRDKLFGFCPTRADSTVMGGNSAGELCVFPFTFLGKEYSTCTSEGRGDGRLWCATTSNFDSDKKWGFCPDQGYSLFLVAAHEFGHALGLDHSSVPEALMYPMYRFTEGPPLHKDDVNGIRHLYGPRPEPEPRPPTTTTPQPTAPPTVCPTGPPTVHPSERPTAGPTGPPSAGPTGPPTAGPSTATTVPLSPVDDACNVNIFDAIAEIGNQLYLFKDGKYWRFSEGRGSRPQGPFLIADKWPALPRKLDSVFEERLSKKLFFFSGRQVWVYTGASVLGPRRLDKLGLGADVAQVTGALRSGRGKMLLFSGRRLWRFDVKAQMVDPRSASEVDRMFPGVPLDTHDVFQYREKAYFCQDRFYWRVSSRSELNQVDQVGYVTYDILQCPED
Sequence of mTll-1 (O43897 148-1013): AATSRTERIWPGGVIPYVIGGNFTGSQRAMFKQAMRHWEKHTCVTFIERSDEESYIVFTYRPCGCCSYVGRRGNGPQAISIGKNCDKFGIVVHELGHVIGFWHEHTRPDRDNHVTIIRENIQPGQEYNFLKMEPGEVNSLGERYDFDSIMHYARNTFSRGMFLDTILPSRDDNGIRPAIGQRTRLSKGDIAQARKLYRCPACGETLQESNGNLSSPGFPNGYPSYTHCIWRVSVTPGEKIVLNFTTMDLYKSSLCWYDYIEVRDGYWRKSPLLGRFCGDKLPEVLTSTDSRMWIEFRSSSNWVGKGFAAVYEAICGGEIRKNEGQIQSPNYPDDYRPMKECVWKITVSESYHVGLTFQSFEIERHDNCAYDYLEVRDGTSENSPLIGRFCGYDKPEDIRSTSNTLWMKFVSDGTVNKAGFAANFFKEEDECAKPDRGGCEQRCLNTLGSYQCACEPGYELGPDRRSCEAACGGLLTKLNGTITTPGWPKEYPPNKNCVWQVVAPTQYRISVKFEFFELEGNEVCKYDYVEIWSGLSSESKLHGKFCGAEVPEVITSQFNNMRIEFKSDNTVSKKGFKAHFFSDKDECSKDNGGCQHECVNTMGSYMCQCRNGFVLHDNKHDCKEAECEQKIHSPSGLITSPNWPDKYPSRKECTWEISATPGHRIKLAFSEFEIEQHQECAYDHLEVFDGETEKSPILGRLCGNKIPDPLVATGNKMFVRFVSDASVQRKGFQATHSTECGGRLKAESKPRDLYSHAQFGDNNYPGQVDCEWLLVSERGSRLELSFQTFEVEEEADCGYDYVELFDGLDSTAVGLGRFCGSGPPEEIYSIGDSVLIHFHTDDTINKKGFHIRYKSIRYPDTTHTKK
Experimental for KLASV cells: To allow for attachment to the tissue culture dish, KLASV cells were plated in tissue culture wells previously coated with type I collagen.

## COc1ccc(CCN(CCC(=O)NO)S(=O)(=O)c2ccc(NC(=O)NCc3ccccc3)cc2)cc1 [Compound 2]
[1]; 10 μM, 48 hr
  inhibition of keratinocyte migration on type I collagen coated versus non-coated dishes: equally effective at inhibiting cell migration
[1]; 1, 5, 8 μM, 48 hours
  migration of NIK into the scratch area, dose dependence: dose-dependent inhibition of migration
SCC-15 cells
  invasion of SCC-15 cells: able to inhibit the invasion
SCC-25 cells
  invasion of SCC-25 cells: able to inhibit the invasion
[2]; 10 μM
  SCC-25 migration response compared with keratinocytes: identical response
[2]; 10 μM, 48 hr
  inhibition of SCC cell migration on type I collagen coated versus non-coated dishes: equally effective at inhibiting cell migration
[2]; 10 μM, up to 48 hours
  SCC-25 migration into the scratch: effective at preventing SCC-25 migration
[2]; 1, 5, 10 μM, 48 hours
  migration of SCC-25 into the scratch area, dose dependence: dose-dependent effect
keratinocytes
  inhibition of keratinocyte migration: potently inhibit
keratinocytes; 10 μM
  keratinocyte migration in transwells or over a scratch: almost complete lack of migration
keratinocytes; Boyden chamber and scratch assays
  inhibition of keratinocyte migration, dose dependence: inhibition of KC migration in a dose-dependent manner
keratinocytes; Boyden chambers
  dose required to achieve nearly complete inhibition of migration: 10 µM
SCC-25
  MTT toxicity, SCC-25: little or no toxicity
MMP-1
  inhibition of activity of MMP-1: no inhibition
mTll-1
  cleavage of laminin 5 α3 chain by mTLL-1: inhibited cleavage of laminin 5 α3 chain
[3]
  migration of SCC-15 into the scratch area, dose dependence: dose-dependent effect
MMP-9
  inhibition of activity of MMP-9: no inhibition
SCC-15
  MTT toxicity, SCC-15: little or no toxicity
mTll-2
  cleavage of laminin 5 α3 chain by mTLL-2: inhibited cleavage of laminin 5 α3 chain
  cleavage of laminin 5 γ2 chain by mTLL-2: inhibited cleavage of laminin 5 γ2 chain
[4]
  processing of laminin 5 in SCC-25, dose dependence: dose-dependent effect
MT1-MMP
  inhibition of activity of MT1-MMP: no inhibition
[5]
  migration of keratinocytes into the scratch: almost a complete lack of migration
Cultured cells; 100 times the concentration which inhibited BMP-1 activity
  toxicity to cultured cells at 100 times inhibitory levels: nontoxic
Cultured cells; cell culture
  toxic effect on cells: nontoxic; also recorded: non-toxic; also recorded: no toxic effect on cells
[6]
  processing of laminin 5 in NIK, dose dependence: dose-dependent effect
[7]
  processing of laminin 5 in SCC-15, dose dependence: dose-dependent effect
MMP-2
  inhibition of activity of MMP-2: no inhibition
SiHa cells
  invasion of SiHa cells: not able to inhibit the invasion
KLASV cells; type I collagen coated dishes, 10 μM, 48 hr
  migration of KLASV cells: not inhibited
KLASV cells; type I collagen coated wells, 24 hours, compared to non-treated control
  migration of KLASV cells into the scratch: significant migration into the scratch
Squamous carcinoma cells
  inhibition of migration of squamous carcinoma cells: potently inhibit
[8]; 10 μM
  processing of laminin 5 deposited by cultured keratinocytes: prevented processing of laminin 5
[8]; 16 hours, western blot
  level of expression of laminin 5: did not significantly change
  processing of the α3 and γ2 chains of laminin 5: completely inhibited
[8]; dose-dependent manner
  laminin 5 α3 chain and γ2 chain processing, dose dependence: inhibited laminin 5 α3 chain and γ2 chain processing
Normal keratinocytes
  resistance of treated cells to trypsin detachment: more resistant to trypsin treatment
SiHa
  MTT toxicity, SiHa: little or no toxicity
